Molecules are shown by their SMILES. Active and inactive are the calls of the source. How the calls were made is not given here.

This is an account of results in PubChem BioAssay AID1259407 (Chemical Carcinogenesis Research Information System (CCRIS), 2018).

In the data set the test system is CCRIS mutagenicity, Ames/micronucleus/aberration tests. The experiment in a line: CCRIS mutagenicity studies.
[1] abbreviates: Test System: AMES SALMONELLA TYPHIMURIUM, Strain/Indicator: TA98, Metabolic Activation: NONE, Method: STANDARD PLATE.
Setting [2] is: Test System: AMES SALMONELLA TYPHIMURIUM, Strain/Indicator: TA100, Metabolic Activation: NONE, Method: STANDARD PLATE.

With `NN`, the mutagenic call is, setting by setting: (End Point: IN VITRO CHROMOSOMAL ABERRATIONS, Test System: CHL CELLS, Metabolic Activation: NONE) “active; positive (structural changes)”; (End Point: IN VITRO CHROMOSOMAL ABERRATIONS, Test System: CHL CELLS, Metabolic Activation: RAT, LIVER, S-9, SODIUM PHENOBARBITAL AND 5,6-BENZOFLAVONE) “active; positive (structural changes)”; (Test System: AMES SALMONELLA TYPHIMURIUM, Strain/Indicator: G46, Metabolic Activation: HAMSTER, LIVER, HOMOGENATE, Method: PREINCUBATION) “active; positive”; (Test System: AMES SALMONELLA TYPHIMURIUM, Strain/Indicator: G46, Metabolic Activation: MOUSE, LIVER, HOMOGENATE, Method: PREINCUBATION) “active; positive”; (Test System: AMES SALMONELLA TYPHIMURIUM, Strain/Indicator: G46, Metabolic Activation: RAT, LIVER, HOMOGENATE, Method: PREINCUBATION) “active; positive”; (Test System: AMES SALMONELLA TYPHIMURIUM, Strain/Indicator: TA98, Metabolic Activation: RAT LIVER S-9, PHENOBARBITAL AND BETA-NAPHTHOFLAVONE, Method: PREINCUBATION) “inactive; negative”. The mutagenic call (Test System: AMES SALMONELLA TYPHIMURIUM, Strain/Indicator: TA100, Metabolic Activation: RAT LIVER S-9, PHENOBARBITAL AND BETA-NAPHTHOFLAVONE, Method: PREINCUBATION) is “inactive; negative”; the mutagenic call (Test System: AMES SALMONELLA TYPHIMURIUM, Strain/Indicator: TA102, Metabolic Activation: NONE, Method: PREINCUBATION) was “active; positive”; the mutagenic call (Test System: AMES SALMONELLA TYPHIMURIUM, Strain/Indicator: TA102, Metabolic Activation: NONE, Method: STANDARD PLATE) is “inactive; negative”; the mutagenic call (Test System: AMES SALMONELLA TYPHIMURIUM, Strain/Indicator: TA1535, Metabolic Activation: HAMSTER, LIVER, HOMOGENATE, Method: PREINCUBATION) is “active; positive”; the mutagenic call (Test System: AMES SALMONELLA TYPHIMURIUM, Strain/Indicator: TA1535, Metabolic Activation: MOUSE, LIVER, HOMOGENATE, Method: PREINCUBATION) is “active; positive”; the mutagenic call (Test System: AMES SALMONELLA TYPHIMURIUM, Strain/Indicator: TA1535, Metabolic Activation: NONE, Method: PREINCUBATION) was “active; positive”. In addition, the mutagenic call is, setting by setting: (Test System: AMES SALMONELLA TYPHIMURIUM, Strain/Indicator: TA1535, Metabolic Activation: RAT LIVER S-9, PHENOBARBITAL AND BETA-NAPHTHOFLAVONE, Method: PREINCUBATION) “active; positive”; (Test System: AMES SALMONELLA TYPHIMURIUM, Strain/Indicator: TA1535, Metabolic Activation: RAT, LIVER, HOMOGENATE, Method: PREINCUBATION) “active; positive”; (Test System: AMES SALMONELLA TYPHIMURIUM, Strain/Indicator: TA1537, Metabolic Activation: NONE, Method: PREINCUBATION) “inactive; negative”; (Test System: AMES SALMONELLA TYPHIMURIUM, Strain/Indicator: TA1537, Metabolic Activation: RAT LIVER S-9, PHENOBARBITAL AND BETA-NAPHTHOFLAVONE, Method: PREINCUBATION) “inactive; negative”; (Test System: AMES SALMONELLA TYPHIMURIUM, Strain/Indicator: TA2638, Metabolic Activation: NONE, Method: STANDARD PLATE) “inactive; negative”; (Test System: E. COLI, Strain/Indicator: WP2 (PKM101), Metabolic Activation: NONE, Method: STANDARD PLATE) “active; positive”. The mutagenic call runs as follows: (Test System: E. COLI, Strain/Indicator: WP2 UVRA (PKM101), Metabolic Activation: NONE, Method: STANDARD PLATE) “active; positive”; (Test System: E. COLI, Strain/Indicator: WP2 UVRA, Metabolic Activation: NONE, Method: PREINCUBATION) “active; positive”; (Test System: E. COLI, Strain/Indicator: WP2 UVRA, Metabolic Activation: RAT, LIVER, MICROSOMES, PHENOBARBITAL, Method: PREINCUBATION) “active; positive”; (Test System: E.COLI, Strain/Indicator: WP2UVRA, Metabolic Activation: NONE, Method: PREINCUBATION) “active; positive”; (Test System: E.COLI, Strain/Indicator: WP2UVRA, Metabolic Activation: RAT LIVER S-9, PHENOBARBITAL AND BETA-NAPHTHOFLAVONE, Method: PREINCUBATION) “active; positive”.
As for `O=[N+]([O-])c1c2c(cc3ccccc13)[C@@H](O)[C@H](O)C=C2`, the mutagenic call is “active; positive” under setting [1]; “active; positive” (Test System: AMES SALMONELLA TYPHIMURIUM, Strain/Indicator: TA98, Metabolic Activation: RAT, LIVER, S-9, Method: STANDARD PLATE); “inactive; negative” under setting [2]; “inactive; negative” (Test System: AMES SALMONELLA TYPHIMURIUM, Strain/Indicator: TA100, Metabolic Activation: RAT, LIVER, S-9, Method: STANDARD PLATE).
Turning to `ClC(Cl)(Cl)Br`, the mutagenic call runs as follows: (Test System: AMES SALMONELLA TYPHIMURIUM, Strain/Indicator: TA97, Metabolic Activation: NONE, Method: STANDARD PLATE) “active; positive”; (Test System: AMES SALMONELLA TYPHIMURIUM, Strain/Indicator: TA97, Metabolic Activation: RAT, LIVER, S-9, AROCLOR 1254, Method: STANDARD PLATE) “active; positive”; under setting [1], “active; positive”; (Test System: AMES SALMONELLA TYPHIMURIUM, Strain/Indicator: TA98, Metabolic Activation: RAT, LIVER, S-9, AROCLOR 1254, Method: STANDARD PLATE) “inactive; negative”; under setting [2], “inactive; negative”; (Test System: AMES SALMONELLA TYPHIMURIUM, Strain/Indicator: TA100, Metabolic Activation: RAT, LIVER, S-9, AROCLOR 1254, Method: STANDARD PLATE) “inactive; negative”. For the same compound, the mutagenic call runs as follows: (Test System: AMES SALMONELLA TYPHIMURIUM, Strain/Indicator: TA104, Metabolic Activation: NONE, Method: STANDARD PLATE) “active; positive”; (Test System: AMES SALMONELLA TYPHIMURIUM, Strain/Indicator: TA104, Metabolic Activation: RAT, LIVER, S-9, AROCLOR 1254, Method: STANDARD PLATE) “active; positive”.
